# Data taken from patent US6638973B2, “Taxane formulations” (FSU Research Foundation, Inc., priority 2000, dated 2003).
# Read-outs that look alike come from different tables or passages of the source.
# Test system: HCT116 cells
# Experiment: In vitro cytotoxicity measured by the cell colony formation assay
# Assay type: cell-based
# Conditions: colonies counted after 7 days, read-out: IN VITRO ID 50 (nm) HCT116
# Summary of the method: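 Colony-forming survival was scored 7 days after a 72 h, 37 °C compound exposure followed by washout into fresh medium.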
# [1] = HCT116 colony formation, 72 h drug incubation, Example 10, C-10 ester/C-7 hydroxy taxanes
# [2] = HCT116 cells, 72 h incubation with drug, ID50 = drug concentration producing 50% inhibition of colony formation
# [3] = HCT116 colony formation, 72 h drug incubation, Example 5, C-7 ester/C-10 hydroxy taxanes
# [4] = HCT116 cells, colony formation, 72 h incubation with drug, ID50 = drug concentration producing 50% inhibition of colony formation
SMILES,IC50 [1] [nM],IC50 [2] [nM],other results
CCC(=O)O[C@H]1C(=O)[C@@]2(C)C([C@H](OC(=O)c3ccccc3)[C@]3(O)C[C@H](OC(=O)[C@H](O)[C@@H](NC(=O)OC(C)(C)CC)c4ccco4)C(C)=C1C3(C)C)[C@]1(OC(C)=O)CO[C@@H]1C[C@@H]2O (some centres unmarked) [Compound 6522],< 1,,
CCC(C)(C)OC(=O)N[C@@H](c1ccco1)[C@@H](O)C(=O)O[C@H]1C[C@@]2(O)[C@@H](OC(=O)c3ccccc3)C3[C@](C)(C(=O)[C@H](O)C(=C1C)C2(C)C)[C@@H](OC(=O)COC(C)=O)C[C@H]1OC[C@@]31OC(C)=O (some centres unmarked) [Compound 6353],,,"IC50 (HCT116 colony formation, 72 h drug incubation, Example 15, C-7 substituted acetate/C-10 hydroxy taxanes): < 1 nM"
CCC(C)(C)OC(=O)N[C@@H](c1ccco1)[C@@H](O)C(=O)O[C@H]1C[C@@]2(O)[C@@H](OC(=O)c3ccccc3)C3[C@](C)(C(=O)[C@H](O)C(=C1C)C2(C)C)[C@@H](OC(=O)Nc1ccccc1)C[C@H]1OC[C@@]31OC(C)=O (some centres unmarked) [Compound 6399],,,"IC50 (HCT116 cells, 72 h drug incubation, ID50 = drug concentration producing 50% inhibition of colony formation): < 10 nM"
CCOC(=O)O[C@H]1C[C@H]2OC[C@@]2(OC(C)=O)C2[C@H](OC(=O)c3ccccc3)[C@]3(O)C[C@H](OC(=O)[C@H](O)[C@@H](NC(=O)OC(C)(C)C)c4ccoc4)C(C)=C([C@@H](O)C(=O)[C@@]21C)C3(C)C (some centres unmarked) [Compound 4464],,< 1,
CCC(=O)O[C@H]1C(=O)[C@@]2(C)C([C@H](OC(=O)c3ccccc3)[C@]3(O)C[C@H](OC(=O)[C@H](O)[C@@H](NC(=O)c4ccccc4)c4ccc([N+](=O)[O-])cc4)C(C)=C1C3(C)C)[C@]1(OC(C)=O)CO[C@@H]1C[C@@H]2O (some centres unmarked) [Compound 0732],< 10,,
COC(=O)O[C@H]1C(=O)[C@@]2(C)C([C@H](OC(=O)c3ccccc3)[C@]3(O)C[C@H](OC(=O)[C@H](O)[C@H](C=C(C)C)NC(=O)OC(C)(C)C)C(C)=C1C3(C)C)[C@]1(OC(C)=O)CO[C@@H]1C[C@@H]2O (some centres unmarked) [Compound 1999],,< 1,
CCOC(=O)O[C@H]1C[C@H]2OC[C@@]2(OC(C)=O)C2[C@H](OC(=O)c3ccccc3)[C@]3(O)C[C@H](OC(=O)[C@H](O)[C@@H](NC(=O)c4cccs4)c4cccs4)C(C)=C([C@@H](O)C(=O)[C@@]21C)C3(C)C (some centres unmarked) [Compound 4455],,< 1,
CCOC(=O)O[C@H]1C[C@H]2OC[C@@]2(OC(C)=O)C2[C@H](OC(=O)c3ccccc3)[C@]3(O)C[C@H](OC(=O)[C@H](O)[C@@H](NC(=O)c4ccco4)c4cccs4)C(C)=C([C@@H](O)C(=O)[C@@]21C)C3(C)C (some centres unmarked) [Compound 4304],,< 10,
CCOC(=O)O[C@H]1C(=O)[C@@]2(C)C([C@H](OC(=O)c3ccccc3)[C@]3(O)C[C@H](OC(=O)[C@H](O)[C@H](C=C(C)C)NC(=O)OCC(C)C)C(C)=C1C3(C)C)[C@]1(OC(C)=O)CO[C@@H]1C[C@@H]2O (some centres unmarked) [Compound 5155],,< 10,
CCCC(=O)OC1C(=O)C2(C)C(O)CC3OCC3(OC(C)=O)C2C(OC(=O)c2ccccc2)C2(O)CC(OC(=O)C(O)C(NC(=O)OC(C)(C)C)c3ccccc3)C(C)=C1C2(C)C (centres unmarked) [Compound 1060],< 1,,
CCOC(=O)O[C@H]1C(=O)[C@@]2(C)C([C@H](OC(=O)c3ccccc3)[C@]3(O)C[C@H](OC(=O)[C@H](O)[C@@H](NC(=O)c4ccccc4)c4cccs4)C(C)=C1C3(C)C)[C@]1(OC(C)=O)CO[C@@H]1C[C@@H]2O (some centres unmarked) [Compound 2972],,< 10,
CC(=O)O[C@@]12CO[C@@H]1C[C@H](O)[C@@]1(C)C(=O)[C@H](OC(=O)C3CC3)C3=C(C)[C@@H](OC(=O)[C@H](O)[C@@H](NC(=O)c4ccccc4)C4CC4)C[C@@](O)([C@@H](OC(=O)c4ccccc4)C12)C3(C)C (some centres unmarked) [Compound 0923],< 1,,
CCC(=O)O[C@H]1C[C@H]2OC[C@@]2(OC(C)=O)C2[C@H](OC(=O)c3ccccc3)[C@]3(O)C[C@H](OC(=O)[C@H](O)[C@@H](NC(=O)c4cccs4)c4ccco4)C(C)=C([C@@H](O)C(=O)[C@@]21C)C3(C)C (some centres unmarked) [Compound 3632],,,IC50 [3]: < 1 nM
CC(=O)O[C@H]1C[C@H]2OC[C@@]2(OC(C)=O)C2[C@H](OC(=O)c3ccccc3)[C@]3(O)C[C@H](OC(=O)[C@H](O)[C@@H](NC(=O)OCC(C)C)c4ccsc4)C(C)=C([C@@H](O)C(=O)[C@@]21C)C3(C)C (some centres unmarked) [Compound 4515],,< 10,
CC(=O)O[C@@]12CO[C@@H]1C[C@H](O)[C@@]1(C)C(=O)[C@H](OC(=O)C3CC3)C3=C(C)[C@@H](OC(=O)[C@H](O)[C@@H](NC(=O)c4cccnc4)c4cccs4)C[C@@](O)([C@@H](OC(=O)c4ccccc4)C12)C3(C)C (some centres unmarked) [Compound 4112],< 10,,
CC(=O)O[C@@]12CO[C@@H]1C[C@H](O)[C@@]1(C)C(=O)[C@H](OC(=O)C(C)C)C3=C(C)[C@@H](OC(=O)[C@H](O)[C@@H](NC(=O)OC(C)(C)C)c4ccoc4)C[C@@](O)([C@@H](OC(=O)c4ccccc4)C12)C3(C)C (some centres unmarked) [Compound 2273],< 1,,

SMILES,IC50 [1] [nM],IC50 [2] [nM],other results
CC(=O)O[C@@]12CO[C@@H]1C[C@H](O)[C@@]1(C)C(=O)[C@H](OC(=O)C3CC3)C3=C(C)[C@@H](OC(=O)[C@H](O)[C@@H](NC(=O)c4ccccc4)c4ccsc4)C[C@@](O)([C@@H](OC(=O)c4ccccc4)C12)C3(C)C (some centres unmarked) [Compound 2838],< 1,,
CC(=O)O[C@@]12CO[C@@H]1C[C@H](O)[C@@]1(C)C(=O)[C@H](OC(=O)C3CC3)C3=C(C)[C@@H](OC(=O)[C@H](O)[C@@H](NC(=O)OC(C)(C)C)c4ccncc4)C[C@@](O)([C@@H](OC(=O)c4ccccc4)C12)C3(C)C (some centres unmarked) [Compound 2813],< 1,,
CC(=O)O[C@@]12CO[C@@H]1C[C@H](O)[C@@]1(C)C(=O)[C@H](OC(=O)C3CC3)C3=C(C)[C@@H](OC(=O)[C@H](O)[C@@H](NC(=O)OC(C)C)c4cccs4)C[C@@](O)([C@@H](OC(=O)c4ccccc4)C12)C3(C)C (some centres unmarked) [Compound 3071],< 1,,
COC(=O)O[C@H]1C(=O)[C@@]2(C)C([C@H](OC(=O)c3ccccc3)[C@]3(O)C[C@H](OC(=O)[C@H](O)[C@@H](NC(=O)OC(C)(C)C)c4ccncc4)C(C)=C1C3(C)C)[C@]1(OC(C)=O)CO[C@@H]1C[C@@H]2O (some centres unmarked) [Compound 2020],,< 1,
COC(=O)O[C@H]1C(=O)[C@@]2(C)C([C@H](OC(=O)c3ccccc3)[C@]3(O)C[C@H](OC(=O)[C@H](O)[C@@H](NC(=O)OC(C)(C)C)c4cccnc4)C(C)=C1C3(C)C)[C@]1(OC(C)=O)CO[C@@H]1C[C@@H]2O (some centres unmarked) [Compound 2011],,< 10,
CCOC(=O)O[C@H]1C(=O)[C@@]2(C)C([C@H](OC(=O)c3ccccc3)[C@]3(O)C[C@H](OC(=O)[C@H](O)[C@@H](NC(=O)c4cccnc4)c4cccs4)C(C)=C1C3(C)C)[C@]1(OC(C)=O)CO[C@@H]1C[C@@H]2O (some centres unmarked) [Compound 3300],,< 10,
CCC(=O)O[C@H]1C(=O)[C@@]2(C)C([C@H](OC(=O)c3ccccc3)[C@]3(O)C[C@H](OC(=O)[C@H](O)[C@H](C=C(C)C)NC(=O)c4ccccc4)C(C)=C1C3(C)C)[C@]1(OC(C)=O)CO[C@@H]1C[C@@H]2O (some centres unmarked) [Compound 0625],< 1,,
CCC(=O)O[C@H]1C(=O)[C@@]2(C)C([C@H](OC(=O)c3ccccc3)[C@]3(O)C[C@H](OC(=O)[C@H](O)[C@@H](NC(=O)c4ccncc4)c4cccs4)C(C)=C1C3(C)C)[C@]1(OC(C)=O)CO[C@@H]1C[C@@H]2O (some centres unmarked) [Compound 4207],< 10,,
C/C=C/C(=O)O[C@H]1C(=O)[C@@]2(C)C([C@H](OC(=O)c3ccccc3)[C@]3(O)C[C@H](OC(=O)[C@H](O)[C@@H](NC(=O)OC(C)(C)C)c4cccs4)C(C)=C1C3(C)C)[C@]1(OC(C)=O)CO[C@@H]1C[C@@H]2O (some centres unmarked) [Compound 2392],< 1,,
CC(=O)O[C@@]12CO[C@@H]1C[C@H](O)[C@@]1(C)C(=O)[C@H](OC(=O)C3CC3)C3=C(C)[C@@H](OC(=O)[C@H](O)[C@@H](NC(=O)c4ccccc4)c4ccccc4)C[C@@](O)([C@@H](OC(=O)c4ccccc4)C12)C3(C)C (some centres unmarked) [Compound 0937],< 10,,
CCC(=O)O[C@H]1C(=O)[C@@]2(C)C([C@H](OC(=O)c3ccccc3)[C@]3(O)C[C@H](OC(=O)[C@H](O)[C@@H](NC(=O)OC(C)(C)C)c4ccccc4)C(C)=C1C3(C)C)[C@]1(OC(C)=O)CO[C@@H]1C[C@@H]2O (some centres unmarked) [Compound 0611],< 10,,
C/C=C/C(=O)N[C@@H](c1ccco1)[C@@H](O)C(=O)O[C@H]1C[C@@]2(O)[C@@H](OC(=O)c3ccccc3)C3[C@](C)(C(=O)[C@H](OC(=O)Nc4ccc(F)c(F)c4)C(=C1C)C2(C)C)[C@@H](O)C[C@H]1OC[C@@]31OC(C)=O (some centres unmarked) [Compound 6015],,,IC50 [4]: < 10 nM
C/C=C/C(=O)N[C@@H](c1ccoc1)[C@@H](O)C(=O)O[C@H]1C[C@@]2(O)[C@@H](OC(=O)c3ccccc3)C3[C@](C)(C(=O)[C@H](OC(=O)C4CC4)C(=C1C)C2(C)C)[C@@H](O)C[C@H]1OC[C@@]31OC(C)=O (some centres unmarked) [Compound 4944],< 1,,
COC(=O)O[C@H]1C(=O)[C@@]2(C)C([C@H](OC(=O)c3ccccc3)[C@]3(O)C[C@H](OC(=O)[C@H](O)[C@@H](NC(=O)OC(C)(C)C)c4cccs4)C(C)=C1C3(C)C)[C@]1(OC(C)=O)CO[C@@H]1C[C@@H]2O (some centres unmarked) [Compound 2044],,< 1,
"CCC(=O)OC1CC2OCC2(OC(C)=O)C2C(OC(=O)c3ccccc3)C3(O)CC(OC(=O)C(O)C(NC(=O)OC(C)(C)C)c4ccco4)C(C)=C(C(O)C(=O)C12C)C3(C)C (centres unmarked) [Compound 1393, 3′-Desphenyl-3′-(2-furyl)-7-propionyl taxotere]",,,IC50 [3]: < 1 nM
CCNC(=O)O[C@H]1C(=O)[C@@]2(C)C([C@H](OC(=O)c3ccccc3)[C@]3(O)C[C@H](OC(=O)[C@H](O)[C@@H](NC(=O)OC(C)(C)C)c4cccnc4)C(C)=C1C3(C)C)[C@]1(OC(C)=O)CO[C@@H]1C[C@@H]2O (some centres unmarked) [Compound 2616],,,IC50 [4]: 27 nM
